Counter-ions that a name gives are not always drawn. Like-named read-outs stand apart in the source and are kept apart here.
Columns and labels:
β1-adrenoceptors = target: T1, β1-adrenoceptors (Rattus norvegicus, UniProt P18090); assay: 50% reduction in isoprenaline-induced tachycardia in rats (β-blocking activity, heart rate); type: in vivo; settings: iv, read-out: ED50 (HR)
T1 construct: measured in rats by determining the dosage in μg/kg i.v. of substance being tested; from tissue; host or cells: living rat (in vivo, i.v. dosing); heart rate response to isoprenaline

β2-adrenoceptors = target: T2, β2-adrenoceptors (Rattus norvegicus, UniProt P10608); assay: 50% reduction in isoprenaline-induced depressor responses in rats (β-blocking activity, blood pressure); type: in vivo; settings: iv, read-out: ED50 (BP)
T2 construct: measured in rats by determining the dosage in μg/kg i.v. of substance being tested; from tissue; host or cells: living rat (in vivo, i.v. dosing); vascular depressor response to isoprenaline

[1] = rats, i.v., dosage for 50% reduction in isoprenaline-induced tachycardia
[2] = rats, i.v., dosage for 50% reduction in isoprenaline-induced depressor responses

T1 sequence (P18090 whole entry): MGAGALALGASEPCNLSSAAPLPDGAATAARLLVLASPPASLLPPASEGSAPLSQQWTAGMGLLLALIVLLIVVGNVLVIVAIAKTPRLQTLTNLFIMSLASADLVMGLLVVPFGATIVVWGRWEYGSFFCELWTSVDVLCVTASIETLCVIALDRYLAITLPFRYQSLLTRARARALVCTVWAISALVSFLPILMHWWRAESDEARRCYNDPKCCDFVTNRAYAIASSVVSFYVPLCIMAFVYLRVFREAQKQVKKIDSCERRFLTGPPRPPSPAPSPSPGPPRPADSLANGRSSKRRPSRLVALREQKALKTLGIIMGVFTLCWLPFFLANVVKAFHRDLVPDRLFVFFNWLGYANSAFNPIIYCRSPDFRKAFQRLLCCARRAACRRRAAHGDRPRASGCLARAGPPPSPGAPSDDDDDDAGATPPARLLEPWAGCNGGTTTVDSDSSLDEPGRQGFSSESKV
T2 sequence (P10608 whole entry): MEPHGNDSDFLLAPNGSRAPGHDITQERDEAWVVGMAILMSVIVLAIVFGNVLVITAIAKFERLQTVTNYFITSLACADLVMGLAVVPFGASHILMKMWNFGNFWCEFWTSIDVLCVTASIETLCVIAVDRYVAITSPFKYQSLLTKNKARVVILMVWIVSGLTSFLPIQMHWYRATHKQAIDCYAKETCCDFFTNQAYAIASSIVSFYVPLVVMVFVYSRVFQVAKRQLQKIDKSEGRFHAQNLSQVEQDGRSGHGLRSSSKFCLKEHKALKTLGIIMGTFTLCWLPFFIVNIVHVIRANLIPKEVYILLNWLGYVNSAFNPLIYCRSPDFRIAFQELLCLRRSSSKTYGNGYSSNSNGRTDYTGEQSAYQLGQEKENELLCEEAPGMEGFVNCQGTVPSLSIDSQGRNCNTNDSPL

SMILES	ED50 (β1-adrenoceptors; [1]) [mg/kg]	ED50 (β2-adrenoceptors; [2]) [mg/kg]	ED50 (β1-adrenoceptors) [mg/kg]	ED50 (β2-adrenoceptors) [mg/kg]
CC(C)NCC(O)COc1ccc(OCCOCCc2ccccc2)cc1Cl (centres unmarked) [1-[2-chloro-4-[2-(phenethyloxy)ethoxy]phenoxy]-3-isopropylamino-2-propanolhydrochloride]	0.025	0.834		
CC(C)NCC(O)COc1ccc(OCCOCCc2ccccc2)cc1.Cl (centres unmarked) [1-isopropylamino-3-[4-(2-phenethyloxyethoxy)phenoxy]-2-propanol hydrochloride]			0.015	> 2
CC(C)(C)NCC(O)COc1ccc(OCCOCCc2ccccc2)cc1.Cl (centres unmarked) [1-tert.butylamino-3-[4-(2-phenethyloxyethoxy)phenoxy]-2-propanol hydrochloride]			0.018	0.979
CC(C)NCC(O)COc1ccc(OCCOCCc2ccc(F)cc2)cc1 (centres unmarked) [1-[4-[2-(4-fluorophenethyloxy)-ethoxy]phenoxy]-3-isopropylamino-2-propanolhydrochloride]	0.003	> 2		

From US4649160A, “Substituted phenoxy-aminopropanols” (Hoffmann-La Roche Inc., priority 1980, dated 1987)
